# Earlier results in patent US20200245614A1, “AGROCHEMICAL EMULSIFIABLE CONCENTRATE COMPOSITION” (priority 2017, published 2020).
# Where two headings read alike, the source gives them in different places.
# Details: n-octanol/water
Compound,LogPow value,LogPow value (listed as gamma-butyl lactone)
"CCCCOC(=O)OCCCC [Composition B-3, Di-n-butyl carbonate]",3.47,
"CC(C)COC(=O)CCCCC(=O)OCC(C)C [Composition B-4, Diisobutyl adipate]",3.70,
"CCCCCCCCCCCC(=O)OC [Composition B-5, Methyl laurate]",5.41,
"COCCOCCO [Composition C-1, Diethylene glycol monomethyl ether]",−1.18,
"OC1CCCCC1 [Composition C-4, Cyclohexanol]",1.2,
"O=C1CCCCC1 [Composition C-5, Cyclohexanone]",0.86,
"CCCCOCCOCCO [Composition C-6, Butyl diglycol]",0.56,
"COCC(C)O (stereo not shown) [Composition C-9, Propylene glycol monomethyl ether]",−0.342,
"CN1CCCC1=O [Composition C-10, N-methyl-2-pyrrolidone]",−0.38,
"COC(C)COC(C)CO (stereo not shown) [Composition C-11, Dipropylene glycol methyl ether]",−0.46,
"CC1COC(=O)O1 (stereo not shown) [Composition C-12, Propylene carbonate]",−0.5,
"O=C1CCCO1 [Composition C-13, γ-Butyrolactone]",−0.566,−0.57
"CCCCN1CCCC1=O [Composition C-16, N-Butylpyrrolidone]",1.27,
"COCCOCCOCCO [Composition C-17, Triethylene glycol monomethyl ether]",−1.12,
"CC(O)COc1ccccc1 (stereo not shown) [Composition C-19, Phenoxypropanol]",1.51,
"OCCOCc1ccccc1 [Composition C-20, Benzyl glycol]",1.11,
"COC(=O)C(C)CCC(=O)N(C)C (stereo not shown) [Composition C-21, 5-(Dimethylamino)-2-methyl-5-oxopentanoic acid methyl ester]",0.39,
"CCCCCCCC/C=C\CCCCCCCC(=O)OC [Composition C-22, Methyl oleate]",7.45,
"CCCCCCCCO [Composition C-24, Octanol]",3,
"CCCCOC(C)=O [Composition C-26, Butyl acetate]",1.82,
"CCCCOCCOCCOCCCC [Composition C-27, Dibutyl diglycol]",1.92,
"CCCCC(CC)COCCOCCO (stereo not shown) [Composition C-28, 2-ethylhexyl diglycol]",2,
CC(C)=O [acetone],−0.24,
CO [methanol],−0.82,
CCC(C)=O [methyl ethyl ketone],0.29,
CCCCCO [pentanol],1.51,
Xylene [Composition B-2],3.15,
